The results in this text go back to US7592373B2 (Boehringer Ingelheim International GmbH, priority 2003, dated 2009).

Molecules are shown by their SMILES. Where a name gives a salt, the structure may show the parent alone.

As a reminder, the melting point is the temperature of the solid-liquid transition.

In the case of `COCCN(Cc1ccc(/C=C/C(=O)Nc2ccc(-c3ccc(Cl)cc3)cc2)cc1)CC(C)(C)O` [Example 5.27, (E)-N-(4′-chlorobiphenyl-4-yl)-3-(4-{[(2-hydroxy-2-methylpropyl)-(2-methoxyethyl)amino]methyl}phenyl)acrylamide], the melting point is 125 to 126 °C. In turn, `CCN(CC)CCOc1ccc(NC(=O)C#Cc2ccc(C(F)(F)F)cc2Cl)cc1F` [Example 4.25, 3-(2-chloro-4-trifluoromethylphenyl)propynoic acid-[4-(3-diethylaminoethoxy)-3-fluorophenyl]amide] showed a melting point of 85 to 88 °C. As to `O=C(C#Cc1ccc(-c2ccc(Cl)cc2)cn1)Nc1ccc(CN2CCC(O)CC2)cc1` [Example 3.168, 3-[5-(4-chlorophenyl)pyridin-2-yl]propynoic acid-[4-(4-hydroxypiperidin-1-ylmethyl)phenyl]amide], the melting point was in the range of 186 to 190 °C. In turn, `O=C(/C=C/c1ccc(CN2CCC3(CCCC3)CC2)cc1)Nc1ccc(-c2ccc(Cl)cc2)cc1` [Example 5.25, (E)-3-[4-(8-azaspiro[4.5]dec-8-ylmethyl)phenyl]-N-(4′-chlorobiphenyl-4-yl)acrylamide] displayed a melting point of 250 °C. `CC1CCN(Cc2ccc(/C=C/C(=O)Nc3ccc(-c4ccc(Cl)cc4)cc3)cc2)CC1` [Example 5.2, (E)-N-(4′-chlorobiphenyl-4-yl)-3-[4-(4-methylpiperidin-1-ylmethyl)phenyl]acrylamide] returned a melting point of 207 to 208 °C. The figure for `COc1cc(NC(=O)C#Cc2ccc(C(F)(F)F)cc2Cl)ccc1OCCN1CC(C)CC(C)C1` (stereo not shown) [Example 4.271, 3-(2-chloro-4-trifluoromethylphenyl)propynoic acid-{4-[2-(3,5-dimethylpiperidin-1-yl)ethoxy]-3-methoxyphenyl}amide] is 196 to 201 °C. The same measure for `NC(=O)C1CCN(Cc2ccc(CCC(=O)Nc3ccc(-c4ccc(Cl)cc4)cc3)cc2)CC1` [Example 6.5, 1-{4-[2-(4′-chlorobiphenyl-4-ylcarbamoyl)ethyl]benzyl}piperidine-4-carboxylic acid amide]: 240 to 241 °C.

Consider `O=C(CCc1ccc(CN2CCN3CCCC3C2)cc1)Nc1ccc(-c2ccc(Cl)cc2)cc1` (stereo not shown) [Example 6.16, N-(4′-chlorobiphenyl-4-yl)-3-[4-(hexahydropyrrolo[1,2-a]pyrazin-2-ylmethyl)phenyl]propionamide], for which the melting point amounted to 177 °C. The same measure for `CCN(CC)CCOc1ccc(N(C)C(=O)C#Cc2ccc(C(F)(F)F)cc2Cl)cc1` [Example 3.39]: 135 to 138 °C; for `CC#Cc1ccc(NC(=O)C#Cc2ccc(CN3CCCCC3)cc2)cc1` [Example 1.2, 3-(4-piperidin-1-ylemthylphenyl)propynoic acid-(4-prop-1-ynylphenyl)amide]: 180 to 181 °C.

On to `CC1CC(C)CN(Cc2ccc(NC(=O)C#Cc3ccc(-c4ccc(Cl)cc4)cc3)cc2)C1` (stereo not shown) [Example 3.12, 3-(4′-chlorobiphenyl-4-yl)propynoic acid-[4-(3,5-dimethylpiperidin-1-ylmethyl)phenyl]amide], for which the melting point was 209 to 214 °C. The same measure for `O=C(/C=C/c1ccc(CN2CCC(CO)CC2)cc1)Nc1ccc(-c2ccc(Cl)cc2)cc1` [Example 5.8, (E)-N-(4′-chlorobiphenyl-4-yl)-3-[4-(4-hydroxymethylpiperidin-1-ylmethyl)phenyl]acrylamide]: 190 to 191 °C; for `CCN(CC)CCOc1ccc(NC(=O)C#Cc2ccc(C(F)(F)F)cc2Cl)cc1N` [Example 4.22, 3-(2-chloro-4-trifluoromethylphenyl)propynoic acid-[3-amino-4-(2-diethylaminoethoxy)phenyl]amide]: 127 to 130 °C; for `CN(Cc1ccc(C#CC(=O)Nc2ccc(-c3ccc(Cl)cc3)cc2)cc1)Cc1ccccn1` [Example 1.58]: 217 to 218 °C. Compound `CCCN(CCOc1ccc(NC(=O)C#Cc2ccc(C(F)(F)F)cc2Cl)cc1OC)CC1CC1` (as salt: hydrochloride) [Example 4.279, 3-(2-chloro-4-trifluoromethylphenyl)propynoic acid-{4-[2-(cyclopropylmethylpropylamino)ethoxy]-3-methoxyphenyl}amide hydrochloride] had a melting point of 185 to 188 °C. For `CC(C)(O)C1CCN(Cc2ccc(C#CC(=O)Nc3ccc(-c4ccc(Cl)cc4)cc3)cc2)CC1` [Example 1.34, 3-{4-[4-(1-hydroxy-1-methylethyl)piperidin-1-ylmethyl]phenyl}propynoic acid-(4′-chlorobiphenyl-4-yl)amide], the melting point was 194 to 195 °C. As to `CCN(CC)CCCOc1ccc(NC(=O)C#Cc2ccc(C(F)(F)F)cc2Cl)cc1Cl` (as salt: formate) [Example 4.18, 3-(2-chloro-4-trifluoromethylphenyl)propynoic acid-[3-chloro-4-(3-diethylaminopropoxy)phenyl]amide formate], the melting point is 112 to 116 °C. Compound `O=C(/C=C/c1ccc(CNCC2CCCCC2)cc1)Nc1ccc(-c2ccc(Cl)cc2)cc1` [Example 5.21, (E)-N-(4′-chlorobiphenyl-4-yl)-3-{4-[(cyclohexylmethylamino)methyl]phenyl}acrylamide] yielded a melting point of 262 to 263 °C. `CCN(CC)CCOc1ccc(NC(=O)C#Cc2ccc(-c3ccccc3)cc2)cc1Cl` [Example 4.4, 3-biphenyl-4-ylpropynoic acid-[3-chloro-4-(2-diethylaminoethoxy)phenyl]amide] yielded a melting point of 105 to 108 °C.

`CN(CCOc1ccccc1)Cc1ccc(CCC(=O)Nc2ccc(-c3ccc(Cl)cc3)cc2)cc1` [Example 6.20, N-(4′-chlorobiphenyl-4-yl)-3-(4-{[methyl-(2-phenoxyethyl)amino]methyl}phenyl)propionamide] returned a melting point of 122 to 124 °C. The figure for `CN(Cc1ccc(/C=C/C(=O)Nc2ccc(-c3ccc(Cl)cc3)cc2)cc1)CC1CC1` [Example 5.17, (E)-N-(4′-chlorobiphenyl-4-yl)-3-{4-[(cyclopropylmethylmethylamino)methyl]phenyl}acrylamide] is 246 to 247 °C; for `CC1CCCC(C)N1Cc1ccc(NC(=O)C#Cc2ccc(-c3ccc(Cl)cc3)cc2)cc1` (stereo not shown) [Example 3.9, 3-(4′-chlorobiphenyl-4-yl)propynoic acid-[4-(2,6-dimethylpiperidin-1-ylmethyl)phenyl]amide] it is 158 to 163 °C. As for `CN(Cc1ccc(NC(=O)C#Cc2ccc(-c3ccc(Cl)cc3)cc2)cc1)CC1CC1` [Example 3.15, 3-(4′-chlorobiphenyl-4-yl)propynoic acid-{4-[(cyclopropylmethylmethylamino)methyl]phenyl}amide], the melting point was in the range of 164 to 167 °C.

With `O=C(CCc1ccc(CNCc2ccccc2)cc1)Nc1ccc(-c2ccc(Cl)cc2)cc1` [Example 6.38, 3-[4-(benzylaminomethyl)phenyl]-N-(4′-chlorobiphenyl-4-yl)propionamide], the melting point stood at 176 °C. `O=C(CCc1ccc(CN2CCC3(CCCC3)CC2)cc1)Nc1ccc(-c2ccc(Cl)cc2)cc1` [Example 6.28, 3-[4-(8-azaspiro[4.5]dec-8-ylmethyl)phenyl]-N-(4′-chlorobiphenyl-4-yl)propionamide] displayed a melting point of 201.5 °C.
